Columns and labels:
[1] = tested on: SARS-CoV-2 strains JPN/TY/WK-521 and NCGM-nCoV-05-2N; assay: microbe, parasite or virus in culture; format: cell-based; conditions: for IC50: Severe acute respiratory syndrome coronavirus 2, Vero C1008, read-out: IC50 against SARS-CoV-2
[2] = tested on: SARS-CoV-2; format: cell-based

SMILES	IC50 [1] [nM]	reasonable effects against SARS-CoV-2 in the assays [1]	further results
C=CCn1ccc2c(C(=O)Oc3cncc(Cl)c3)cccc21 [GRL-0820S]	15000 ± 18000	–	blocking of infectivity, replication and cytopathic effect of SARS-CoV-2 [2]: significantly blocked the infectivity and replication; viral breakthrough [2]: viral breakthrough occurred
O=C(Oc1cncc(Cl)c1)c1cccc2[nH]ccc12 [GRL-0920S]	2800 ± 300	–	block of infectivity and cytopathic effect of SARS-CoV-2 (FIG. 1) [2]: virtually completely block the infectivity and cytopathic effect; blocking of infectivity, replication and cytopathic effect of SARS-CoV-2 [2]: completely blocked the infectivity, replication, and cytopathic effect
NC(=O)c1nc(F)c[nH]c1=O [favipiravir]	–	none	–
CCN(CCO)CCCC(C)Nc1ccnc2cc(Cl)ccc12 (centres unmarked) [hydroxychloroquine]	–	none	–
Cc1cccc(C)c1OCC(=O)N[C@@H](Cc1ccccc1)[C@@H](O)C[C@H](Cc1ccccc1)NC(=O)[C@H](C(C)C)N1CCCNC1=O [lopinavir]	–	none	–
N=C(N)c1ccc2cc(OC(=O)c3ccc(N=C(N)N)cc3)ccc2c1 [nafamostat]	–	none	–
Cc1c(O)cccc1C(=O)N[C@@H](CSc1ccccc1)[C@H](O)CN1C[C@H]2CCCC[C@H]2C[C@H]1C(=O)NC(C)(C)C [nelfinavir]	–	none	–
CC(=O)Oc1ccccc1C(=O)Nc1ncc([N+](=O)[O-])s1 [nitazoxanide]	–	none	–
CCC(CC)COC(=O)[C@H](C)N[P@](=O)(OC[C@H]1O[C@@](C#N)(c2ccc3c(N)ncnn23)[C@H](O)[C@@H]1O)Oc1ccccc1 [remdesivir]	2600 ± 700	–	–
NC(=O)c1ncn([C@@H]2O[C@H](CO)[C@@H](O)[C@H]2O)n1 [ribavirin]	–	none	–

Reference: patent publication US20230183207A1 (priority 2020, published 2023)
